The source of these data is paper PMC12316058 (Nature chemical biology, 2024).

The target of one assay is T1, Cs (R)-Bdh (Clostridium saccharoperbutylacetonicum, UniProt M1MWX5).
T1 sequence (M1MWX5 1-361): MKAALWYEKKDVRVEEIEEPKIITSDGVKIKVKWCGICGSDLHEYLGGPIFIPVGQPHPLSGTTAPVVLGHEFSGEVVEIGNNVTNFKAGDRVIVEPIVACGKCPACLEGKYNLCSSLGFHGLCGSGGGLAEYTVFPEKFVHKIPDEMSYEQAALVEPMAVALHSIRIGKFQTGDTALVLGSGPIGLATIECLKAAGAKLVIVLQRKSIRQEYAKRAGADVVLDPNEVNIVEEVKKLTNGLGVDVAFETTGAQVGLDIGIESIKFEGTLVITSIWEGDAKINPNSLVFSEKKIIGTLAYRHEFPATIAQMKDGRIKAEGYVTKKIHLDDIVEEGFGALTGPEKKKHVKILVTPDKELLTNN
Briefly: specific activity, absorbance at […] nm. As to conditions: 10 mM m-BDO, 4 mM NADP+, 50 mM glycine-NaOH pH 10.0. The assay is classed as biochemical.

Another assay has as its target T2, Ll Nox (Lactococcus cremoris, UniProt A2RIB7).
T2 sequence (A2RIB7 1-446): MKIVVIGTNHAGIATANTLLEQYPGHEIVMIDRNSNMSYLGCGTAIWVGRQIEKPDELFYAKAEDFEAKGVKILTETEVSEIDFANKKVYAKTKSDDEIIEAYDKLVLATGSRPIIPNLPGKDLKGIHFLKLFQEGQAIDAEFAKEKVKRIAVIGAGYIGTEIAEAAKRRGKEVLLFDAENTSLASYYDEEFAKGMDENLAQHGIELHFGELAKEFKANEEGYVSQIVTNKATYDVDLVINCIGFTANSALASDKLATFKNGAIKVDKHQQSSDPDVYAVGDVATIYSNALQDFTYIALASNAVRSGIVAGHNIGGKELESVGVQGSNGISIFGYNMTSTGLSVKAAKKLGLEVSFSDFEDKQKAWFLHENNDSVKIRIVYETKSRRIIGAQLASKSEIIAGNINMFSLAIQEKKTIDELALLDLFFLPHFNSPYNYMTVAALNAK
In words: absorbance at […] nm, initial rates. The assay is classed as biochemical. As to conditions: 50 mM Tris-Cl pH 7.0, 37 °C; O2 as acceptor.

`NC(=O)c1ccc[n+]([C@@H]2O[C@H](COP(=O)(O)OP(=O)(O)OC[C@H]3O[C@@H](n4cnc5c(N)ncnc54)[C@H](OP(=O)(O)O)[C@@H]3O)[C@@H](O)[C@H]2O)c1` [NADP+]: at Cs (R)-Bdh, the specific activity entry was “We subsequently confirmed specific activity with NADP^+”.

`NC(=O)C1=CN([C@@H]2O[C@H](COP(=O)(O)O)[C@@H](O)[C@H]2O)C=CC1` [NMNH]: at Ll Nox, the kcat/Km app entry is “Ll Nox WT (gray) and Nox Ortho (yellow) toward NADH, NADPH and NMNH”.
